# According to PubChem BioAssay AID2060487 (Molecular Pharmacology Branch, DTP, NCI, 2025):
# Test system: 997537-175-T-J1-PDC complex spheroid viability
# Assay: Anticancer human tumor 997537-175-T-J1-PDC patient-derived colon adenocarcinoma cell line growth inhibition [GQUAD]
# Conditions: for IC50: curve of first compound; for viability, T/C: stronger effect = lower value
# Summary of the method: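 Multi-cell-type spheroids of tumor cells with HUVEC and mesenchymal stem cells, treated with drug combinations. Concentrations descend in half-log steps from near clinical Cmax, or from 10 microM where Cmax is unknown; viability read-out.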
# [1] = second compound 0.0316 µM, first compound 0.0316 µM
# [2] = second compound 0.0316 µM, first compound 0.1 µM
# [3] = second compound 0.0316 µM, first compound 0.316 µM
# [4] = second compound 0.0316 µM, first compound 1 µM
# [5] = second compound 0.0316 µM, first compound 3.16 µM
# [6] = second compound 0.0316 µM, first compound 10 µM
# [7] = second compound 0.1 µM, first compound 0.0316 µM
# [8] = second compound 0.1 µM, first compound 0.1 µM
# [9] = second compound 0.1 µM, first compound 0.316 µM
# [10] = second compound 0.1 µM, first compound 1 µM
# [11] = second compound 0.1 µM, first compound 3.16 µM
# [12] = second compound 0.1 µM, first compound 10 µM
# [13] = second compound 0.316 µM, first compound 0.0316 µM
# [14] = second compound 0.316 µM, first compound 0.1 µM
# [15] = second compound 0.316 µM, first compound 0.316 µM
# [16] = second compound 0.316 µM, first compound 1 µM
# [17] = second compound 0.316 µM, first compound 3.16 µM
# [18] = second compound 0.316 µM, first compound 10 µM
# [19] = second compound 1 µM, first compound 0.0316 µM
# [20] = second compound 1 µM, first compound 0.1 µM
# [21] = second compound 1 µM, first compound 0.316 µM
# [22] = second compound 1 µM, first compound 1 µM
# [23] = second compound 1 µM, first compound 3.16 µM
# [24] = second compound 1 µM, first compound 10 µM
# [25] = second compound 3.16 µM, first compound 0.0316 µM
# [26] = second compound 3.16 µM, first compound 0.1 µM
# [27] = second compound 3.16 µM, first compound 0.316 µM
# [28] = second compound 3.16 µM, first compound 1 µM
# [29] = second compound 3.16 µM, first compound 3.16 µM
# [30] = second compound 3.16 µM, first compound 10 µM
# [31] = second compound 10 µM, first compound 0.0316 µM
# [32] = second compound 10 µM, first compound 0.1 µM
# [33] = second compound 10 µM, first compound 0.316 µM
# [34] = second compound 10 µM, first compound 1 µM
# [35] = second compound 10 µM, first compound 3.16 µM
# [36] = second compound 10 µM, first compound 10 µM
# 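Further: spheroids exposed to the agents for 7 days.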
# 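Wherever viability, T/C is given: 100% = DMSO vehicle control viability.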
smiles,measurement,setting,value
COc1ncnc(C2CC2)c1-c1ncc2cnn(Cc3ccc(-c4nc(C(F)(F)F)cn4C(C)C)cc3)c2n1 + Cc1[nH]c2ccc(F)cc2c1-c1nc2c3cccnc3c3ncccc3c2[nH]1,IC50,second compound 0.0316 µM,9.19 µM
same,IC50,second compound 0.1 µM,> 10 µM
same,IC50,second compound 0.316 µM,> 10 µM
same,IC50,second compound 1 µM,9.26 µM
same,IC50,second compound 3.16 µM,8.15 µM
same,IC50,second compound 10 µM,> 10 µM
same,"viability, T/C",[1],100%
same,"viability, T/C",[2],98.9%
same,"viability, T/C",[3],103%
same,"viability, T/C",[4],93.1%
same,"viability, T/C",[5],98.8%
same,"viability, T/C",[6],46.2%
same,"viability, T/C",[7],100%
same,"viability, T/C",[8],107%
same,"viability, T/C",[9],102%
same,"viability, T/C",[10],96.3%
same,"viability, T/C",[11],87.9%
same,"viability, T/C",[12],70.5%
same,"viability, T/C",[13],104%
same,"viability, T/C",[14],101%
same,"viability, T/C",[15],100%
same,"viability, T/C",[16],96.7%
same,"viability, T/C",[17],91.8%
same,"viability, T/C",[18],50.9%
same,"viability, T/C",[19],91.7%
same,"viability, T/C",[20],103%
same,"viability, T/C",[21],101%
same,"viability, T/C",[22],93%
same,"viability, T/C",[23],92.8%
same,"viability, T/C",[24],46.8%
same,"viability, T/C",[25],83.1%
same,"viability, T/C",[26],86.5%
same,"viability, T/C",[27],87.2%
same,"viability, T/C",[28],84.2%
same,"viability, T/C",[29],76.7%
same,"viability, T/C",[30],44.2%
same,"viability, T/C",[31],85.3%
same,"viability, T/C",[32],87.8%
same,"viability, T/C",[33],89.1%
same,"viability, T/C",[34],89.5%
same,"viability, T/C",[35],72.9%
same,"viability, T/C",[36],59.6%
CC(C)(O)C1CCC(Nc2ccc3ncc(-c4cccc(C(F)(F)F)c4)n3n2)CC1 (stereo unspecified) + Cc1cnc(CNC(=O)c2c(=O)c3ccc(N4CCCN(C)CC4)nc3n3c2sc2ccccc23)cn1,IC50,second compound 0.0316 µM,1.13 µM
same,IC50,second compound 0.1 µM,0.896 µM
same,IC50,second compound 0.316 µM,1.38 µM
same,IC50,second compound 1 µM,1.73 µM
same,IC50,second compound 3.16 µM,1.5 µM
same,IC50,second compound 10 µM,1.57 µM
same,"viability, T/C",[1],90.1%
same,"viability, T/C",[2],66.9%
same,"viability, T/C",[3],88.4%
same,"viability, T/C",[4],52.1%
same,"viability, T/C",[5],32.2%
same,"viability, T/C",[6],30.2%
same,"viability, T/C",[7],87.6%
same,"viability, T/C",[8],80.2%
same,"viability, T/C",[9],73.4%
same,"viability, T/C",[10],46.9%
same,"viability, T/C",[11],36.7%
same,"viability, T/C",[12],33.7%
same,"viability, T/C",[13],98.1%
same,"viability, T/C",[14],81.1%
same,"viability, T/C",[15],80.5%
same,"viability, T/C",[16],57.2%
same,"viability, T/C",[17],31.7%
same,"viability, T/C",[18],36.5%
same,"viability, T/C",[19],69.9%
same,"viability, T/C",[20],101%
same,"viability, T/C",[21],91.4%
same,"viability, T/C",[22],64.5%
same,"viability, T/C",[23],35.4%
same,"viability, T/C",[24],27%
same,"viability, T/C",[25],92.5%
same,"viability, T/C",[26],84.4%
same,"viability, T/C",[27],96.3%
same,"viability, T/C",[28],65.4%
same,"viability, T/C",[29],20.1%
same,"viability, T/C",[30],23.2%
same,"viability, T/C",[31],76.2%
same,"viability, T/C",[32],108%
same,"viability, T/C",[33],91.5%
same,"viability, T/C",[34],69.4%
same,"viability, T/C",[35],19.1%
same,"viability, T/C",[36],21.2%
C#Cc1c(F)ccc2cc(O)cc(-c3ncc4c(N5CC6CCC(C5)N6)nc(OCC56CCCN5CC(F)C6)nc4c3F)c12 (stereo unspecified) + Cc1cnc(CNC(=O)c2c(=O)c3ccc(N4CCCN(C)CC4)nc3n3c2sc2ccccc23)cn1,IC50,second compound 0.0316 µM,> 10 µM
same,IC50,second compound 0.1 µM,> 10 µM
same,IC50,second compound 0.316 µM,> 10 µM
same,IC50,second compound 1 µM,> 10 µM
same,IC50,second compound 3.16 µM,> 10 µM
same,IC50,second compound 10 µM,> 10 µM
same,"viability, T/C",[1],102%
same,"viability, T/C",[2],85.6%
same,"viability, T/C",[3],101%
same,"viability, T/C",[4],74.9%
same,"viability, T/C",[5],75.7%
same,"viability, T/C",[6],111%
same,"viability, T/C",[7],92.2%
same,"viability, T/C",[8],90.2%
same,"viability, T/C",[9],101%
same,"viability, T/C",[10],80.8%
same,"viability, T/C",[11],104%
same,"viability, T/C",[12],109%
same,"viability, T/C",[13],83.4%
same,"viability, T/C",[14],83.6%
same,"viability, T/C",[15],92.1%
same,"viability, T/C",[16],97.3%
same,"viability, T/C",[17],79.9%
same,"viability, T/C",[18],108%
same,"viability, T/C",[19],72.3%
same,"viability, T/C",[20],101%
same,"viability, T/C",[21],85%
same,"viability, T/C",[22],98%
same,"viability, T/C",[23],105%
same,"viability, T/C",[24],113%
same,"viability, T/C",[25],91.2%
same,"viability, T/C",[26],108%
same,"viability, T/C",[27],95.2%
same,"viability, T/C",[28],99.1%
same,"viability, T/C",[29],96.3%
same,"viability, T/C",[30],106%
same,"viability, T/C",[31],77%
same,"viability, T/C",[32],100%
same,"viability, T/C",[33],93.1%
same,"viability, T/C",[34],97.9%
same,"viability, T/C",[35],127%
same,"viability, T/C",[36],110%
